Data published in patent US20240132431A1, “METHOD FOR ALKYLATING ACIDIC FUNCTIONAL GROUP” (Chugai Seiyaku Kabushiki Kaisha, priority 2021, published 2024).

Biological target: T1, Bcl-2 protein (Recombinant Human Bcl-2 Protein) (Homo sapiens, UniProt P10415)
T1 construct: purchased Novus NBP2-34889
Experiment: Binding evaluation of mixture library compounds to Bcl-2 using AS-MS (affinity selection mass spectrometry)
Conditions: for ASMS ratio (%) n = 1: replicate n = 1; for ASMS ratio (%) n = 1 / ASMS ratio (%) n = 2: ASMS Ratio(%)=(A−C)/B×100; for ASMS ratio (%) n = 2: replicate n = 2
Outline: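 ASMS Ratio (%) was calculated as (A−C)/B×100, where A is the protein sample after SEC, B the protein-free sample without SEC and C the protein-free sample after SEC. Each compound was at […] in a 1200-member pool with 20 μM Bcl-2, incubated 1 h at 23° C.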

[1] = AS-MS on the mixture of 1200 library compounds
[2] = AS-MS, mixture of 1200 compounds, Bcl-2

T1 sequence (P10415 whole entry): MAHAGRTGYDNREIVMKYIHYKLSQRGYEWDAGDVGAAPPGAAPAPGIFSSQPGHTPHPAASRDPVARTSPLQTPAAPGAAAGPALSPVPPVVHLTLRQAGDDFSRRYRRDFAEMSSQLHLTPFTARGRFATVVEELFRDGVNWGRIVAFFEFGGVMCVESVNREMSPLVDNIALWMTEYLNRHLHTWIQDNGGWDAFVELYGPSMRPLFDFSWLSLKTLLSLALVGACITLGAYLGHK

CCOc1cncc(-c2ccc(CN3CCN(c4ccc(C(=O)N(CC)CC)nn4)CC3)c(OC)c2)c1 [B4J080-01]
ASMS ratio (%) n = 1 (AS-MS, mixture library, Bcl-2): 0.0% | ASMS ratio (%) n = 2 (AS-MS, mixture library, Bcl-2): 0.0%

CCOc1cncc(-c2ccc(CN3CCN(c4ccc(C(=O)NS(=O)(=O)CC56CC7CC(CC(C7)C5)C6)nn4)CC3)cc2F)c1 [B2A078-01, N-(1-Adamantylmethylsulfonyl)-6-[4-[[4-(5-ethoxypyridin-3-yl)-3-fluorophenyl]methyl]piperazin-1-yl]pyridazine-3-carboxamide]
ASMS ratio (%) n = 1 (AS-MS, mixture library, Bcl-2): 15.2% | ASMS ratio (%) n = 2 (AS-MS, mixture library, Bcl-2): 9.3%

CCOc1cccc(-c2ccccc2CCC(=O)N2CCN(c3ccc(C(=O)N(C)CC45CC6CC(CC(C6)C4)C5)cc3)CC2)c1 [B3A033-01, N-(1-Adamantylmethyl)-4-[4-[3-[2-(3-ethoxyphenyl)phenyl]propanoyl]piperazin-1-yl]-N-methylbenzamide]
ASMS ratio (%) n = 1 [1]: 1.1% | ASMS ratio (%) n = 2 [1]: −0.6%

CCOc1cncc(-c2ccc(CN3CCN(c4ccc(C(=O)NS(=O)(=O)c5ccc(NCCSc6ccccc6)c(C(F)(F)F)c5)cc4)CC3)cc2C)c1 [B2R048-01]
ASMS ratio (%) (n = 1): 9.2% | ASMS ratio (%) (n = 2): 7.5%

CCOc1cccc(-c2ccccc2CN2CCN(c3ccc(C(=O)NS(=O)(=O)CCC(F)(F)F)cc3)CC2)c1 [B2N045-01, 4-[4-[[2-(3-Ethoxyphenyl)phenyl]methyl]piperazin-1-yl]-N-(3,3,3-trifluoropropylsulfonyl)benzamide]
ASMS ratio (%) (n = 1): 0.0% | ASMS ratio (%) (n = 2): 0.1%

CCOc1cncc(-c2ccccc2CCC(=O)N2CCN(c3ccc(C(=O)NS(=O)(=O)C(C)(C)C)nn3)CC2)c1 [B2L012-01, N-tert-Butylsulfonyl-6-[4-[3-[2-(5-ethoxypyridin-3-yl)phenyl]propanoyl]piperazin-1-yl]pyridazine-3-carboxamide]
ASMS ratio (%) (n = 1): 4.3% | ASMS ratio (%) (n = 2): 7.3%

6-[4-[4-(3-Ethoxyphenyl)naphthalene-1-carbonyl]piperazin-1-yl]-N-propylpyridazine-3-carboxamide [B1M071-01]
ASMS ratio (%) n = 1 [2]: 34.0% | ASMS ratio (%) n = 2 [2]: 24.4%

CCOc1cncc(-c2cc(CN3CCN(c4ccc(C(=O)NS(C)(=O)=O)nn4)CC3)cc(OC(C)C)c2)c1 [B2I084-01]
ASMS ratio (%) (n = 1): −0.9% | ASMS ratio (%) (n = 2): −1.5%

CCOc1cncc(-c2ccc(CN3CCN(c4ccc(C(=O)NS(C)(=O)=O)cc4)CC3)cc2C)c1 [B2I048-01, 4-[4-[[4-(5-Ethoxypyridin-3-yl)-3-methylphenyl]methyl]piperazin-1-yl]-N-methylsulfonylbenzamide]
ASMS ratio (%) (n = 1): 0.0% | ASMS ratio (%) (n = 2): 0.0%

4-[4-[1-[4-(3-Ethoxyphenyl)phenyl]ethyl]piperazin-1-yl]-N-propylbenzamide [B1M003-01]
ASMS ratio (%) n = 1 [2]: −1.9% | ASMS ratio (%) n = 2 [2]: 2.0%

CCOc1cccc(C#Cc2cc(C(=O)N3CCN(c4ccc(C(=O)N(CC)CC)cc4)CC3)cc(C(F)(F)F)c2)c1 [B4J041-01, 4-[4-[3-[2-(3-Ethoxyphenyl)ethynyl]-5-(trifluoromethyl)benzoyl]piperazin-1-yl]-N,N-diethylbenzamide]
ASMS ratio (%) n = 1 [1]: 2.8% | ASMS ratio (%) n = 2 [1]: 1.7%

CCOc1cccc(-c2ccc(CN3CCN(c4ccc(C(=O)N(CC)CC)cc4)CC3)cc2F)c1 [B4J051-01, 4-[4-[[4-(3-Ethoxyphenyl)-3-fluorophenyl]methyl]piperazin-1-yl]-N,N-diethylbenzamide]
ASMS ratio (%) n = 1 [1]: −9.6% | ASMS ratio (%) n = 2 [1]: −10.2%

CCOc1cncc(-c2cc(C(=O)N3CCN(c4ccc(C(=O)Nc5ccc(OC)cc5)nn4)CC3)cc(C(F)(F)F)c2)c1 [B1O018-01, 6-[4-[3-(5-Ethoxypyridin-3-yl)-5-(trifluoromethyl)benzoyl]piperazin-1-yl]-N-(4-methoxyphenyl)pyridazine-3-carboxamide]
ASMS ratio (%) n = 1 [1]: 1.0% | ASMS ratio (%) n = 2 [1]: 3.2%

CCOc1cncc(-c2cc(CN3CCN(c4ccc(C(=O)Nc5ccc(OC)cc5)cc4)CC3)cc(OC(C)C)c2)c1 [B1O058-01]
ASMS ratio (%) n = 1 [1]: −3.5% | ASMS ratio (%) n = 2 [1]: 4.4%

CCOc1cccc(-c2cc(CN3CCN(c4ccc(C(=O)NS(=O)(=O)CC56CC7CC(CC(C7)C5)C6)nn4)CC3)cc(OC(C)C)c2)c1 [B2A083-01, N-(1-Adamantylmethylsulfonyl)-6-[4-[[3-(3-ethoxyphenyl)-5-propan-2-yloxyphenyl]methyl]piperazin-1-yl]pyridazine-3-carboxamide]
ASMS ratio (%) n = 1 (AS-MS, mixture library, Bcl-2): 10.3% | ASMS ratio (%) n = 2 (AS-MS, mixture library, Bcl-2): 0.0%

CCOc1cncc(-c2cc(C(=O)N3CCN(c4ccc(C(=O)NCC56CC7CC(CC(C7)C5)C6)nn4)CC3)cc(C(C)(C)C)c2)c1 [B1A016-01, N-(1-Adamantylmethyl)-6-[4-[3-tert-butyl-5-(5-ethoxypyridin-3-yl)benzoyl]piperazin-1-yl]pyridazine-3-carboxamide]
ASMS ratio (%) n = 1 [2]: 12.1% | ASMS ratio (%) n = 2 [2]: −4.6%

CCOc1cncc(-c2csc(CN3CCN(c4ccc(C(=O)NS(=O)(=O)CCC(F)(F)F)cc4)CC3)c2)c1 [B2N068-01]
ASMS ratio (%) (n = 1): 0.0% | ASMS ratio (%) (n = 2): 0.5%

CCOc1cccc(-c2csc(CN3CCN(c4ccc(C(=O)NCC56CC7CC(CC(C7)C5)C6)nn4)CC3)c2)c1 [B1A093-01, N-(1-Adamantylmethyl)-6-[4-[[4-(3-ethoxyphenyl)thiophen-2-yl]methyl]piperazin-1-yl]pyridazine-3-carboxamide]
ASMS ratio (%) n = 1 [2]: −5.3% | ASMS ratio (%) n = 2 [2]: 0.0%

CCOc1cncc(-c2cc(OC)c(CN3CCN(c4ccc(C(=O)NS(C)(=O)=O)nn4)CC3)c(OC)c2)c1 [B2I086-01, 6-[4-[[4-(5-Ethoxypyridin-3-yl)-2,6-dimethoxyphenyl]methyl]piperazin-1-yl]-N-methylsulfonylpyridazine-3-carboxamide]
ASMS ratio (%) (n = 1): 0.0% | ASMS ratio (%) (n = 2): 0.0%

CCOc1cncc(-c2ccccc2CCC(=O)N2CCN(c3ccc(C(=O)N(CC)CC)cc3)CC2)c1 [B4J034-01, 4-[4-[3-[2-(5-Ethoxypyridin-3-yl)phenyl]propanoyl]piperazin-1-yl]-N,N-diethylbenzamide]
ASMS ratio (%) n = 1 [1]: −0.7% | ASMS ratio (%) n = 2 [1]: 0.9%

CCOc1cncc(-c2cc(OC)c(CN3CCN(c4ccc(C(=O)NS(=O)(=O)CCC(F)(F)F)cc4)CC3)c(OC)c2)c1 [B2N060-01, 4-[4-[[4-(5-Ethoxypyridin-3-yl)-2,6-dimethoxyphenyl]methyl]piperazin-1-yl]-N-(3,3,3-trifluoropropylsulfonyl)benzamide]
ASMS ratio (%) (n = 1): 0.0% | ASMS ratio (%) (n = 2): 0.0%

6-[4-[[2-(3-Ethoxyphenyl)phenyl]methyl]piperazin-1-yl]-N-propylpyridazine-3-carboxamide [B1M042-01]
ASMS ratio (%) n = 1 [2]: 0.0% | ASMS ratio (%) n = 2 [2]: 0.0%
